Measured values taken from patent US11465989B2, “Guanidine compounds and use thereof” (IMMUNOMET THERAPEUTICS INC., priority 2014, dated 2022).
Structures can show the parent of a compound that is named as a salt.

System: SK-MEL-28 cells
Assay: Cytotoxicity in low glucose condition (MTT)
Assay type: cell-based
Settings: Homo sapiens, SK-MEL-28, 0.75 mM glucose, 72 hours, read-out: SK-MEL-28 0.75 mM glucose Cell viability (IC50 ia)
Excerpt: The inhibition of oxidative phosphorylation (OXPHOS) is not cytotoxic to cells in normal glucose condition, because it is postulated that normal cells have compensatory mechanism under energy stress conditions such as low glucose. However OXPHOS inhibitors show cytotoxic effect on cells in the glucose deprived condition (BirsoyK, 2014). The glucose deprived condition is observed in tumor microenvironment potentially due to poor angiogenesis. Therefore the OXPHOS inhibitors may show anti-cancer effect on cancer cells in low glucose condition that may depict tumor microenvironment.
The compounds of the present invention were evaluated their cytotoxicity in SK-MEL-28, melanoma with 0.75 mM glucose supplement. The cytotoxic effect is compared with the cytotoxicity caused by phenformin. The cytotoxicity in low glucose condition is correlated with inhibition of oxygen consumption in mitochondria.
SK-MEL-28 (HTB-72) is a melanoma cell line obtained from ATCC (MA) and cultured in RPMI 1640 media (Lifetechnologies, CA) with supplement of 10% FBS and antibiotic-antimycotic (Lifetechnologies, CA). RPMI 1640 (-Glucose) was used to prepare low glucose media and 0.75 mM glucose was supplied with D-(+)-glucose solution from Sigma. SK-MEL-28 cells were separated from culture plate using 0.5% trypsin-EDTA and 5,000 cells were plated in 96-well plate with low glucose media. After incubation at 37° C. for 24 hour, 5% CO2, the cells were treated with the compounds of present invention in FBS-free media for 72 hours. The cytotoxicity was measured by the MTT (AMRESCO, OH) assay. NADH-dependent cellular oxidoreductase reduces MTT to its insoluble […] with purple color. The enzyme depends on cell number or energy state of cells. 10 μl of 5 mg/ml MIT solution was added to each well of the assay plate and skip the well for blank. The plate was incubated at 37° C. and 5% CO2 for 2 hours. The MTT solution was removed from each well and 100 μl of DMSO was added. The plate was read by VICTOR X3 Multilabel Counter at the wavelength of 550 nm. In Table 2, the levels of IC50 are evaluated by the following criteria.

Which IC50 does the source give for `N=C(N)NC(=N)NCCc1ccc(Cl)c(Cl)c1` [Example 1, N-1-(3,4-dichloro)phenethylbiguanide hydrochloride] here?
The IC50 was 5 to 10 µM.
